Values quoted from earlier work as cited in patent US9957484B2, “Methods for promoting cell reprogramming” (Sanford-Burnham Medical Research Institute, priority 2011, dated 2018).

Tests used:
Conditions in all cases: kind of value not given; cited from earlier work
[1] = target: Cdk5/p25 (Homo sapiens, UniProt Q00535)
[2] = target: PKCβ (Homo sapiens, UniProt P05771)
[3] = target: Cdc25C-associated protein kinase 1 (Homo sapiens, UniProt P27448)
[4] = target: Chk1 (Homo sapiens, UniProt O14757)
Chk1, sequence (O14757 whole entry, species assumed): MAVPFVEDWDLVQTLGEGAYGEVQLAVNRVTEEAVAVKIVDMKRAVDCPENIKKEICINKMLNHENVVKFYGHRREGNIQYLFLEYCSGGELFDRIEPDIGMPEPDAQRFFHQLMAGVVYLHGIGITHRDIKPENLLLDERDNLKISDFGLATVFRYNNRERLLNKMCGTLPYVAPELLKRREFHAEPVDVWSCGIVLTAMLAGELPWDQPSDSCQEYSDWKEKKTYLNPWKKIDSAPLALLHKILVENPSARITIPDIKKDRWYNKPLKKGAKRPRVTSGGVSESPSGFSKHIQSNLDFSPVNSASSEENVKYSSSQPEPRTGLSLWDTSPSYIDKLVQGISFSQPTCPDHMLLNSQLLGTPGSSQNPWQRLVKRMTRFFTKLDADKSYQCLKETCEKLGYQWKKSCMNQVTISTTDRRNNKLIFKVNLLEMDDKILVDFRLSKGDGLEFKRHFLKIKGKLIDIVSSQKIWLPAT

[5] = target: Lck (Homo sapiens, UniProt P06239)
Lck, sequence (P06239 whole entry): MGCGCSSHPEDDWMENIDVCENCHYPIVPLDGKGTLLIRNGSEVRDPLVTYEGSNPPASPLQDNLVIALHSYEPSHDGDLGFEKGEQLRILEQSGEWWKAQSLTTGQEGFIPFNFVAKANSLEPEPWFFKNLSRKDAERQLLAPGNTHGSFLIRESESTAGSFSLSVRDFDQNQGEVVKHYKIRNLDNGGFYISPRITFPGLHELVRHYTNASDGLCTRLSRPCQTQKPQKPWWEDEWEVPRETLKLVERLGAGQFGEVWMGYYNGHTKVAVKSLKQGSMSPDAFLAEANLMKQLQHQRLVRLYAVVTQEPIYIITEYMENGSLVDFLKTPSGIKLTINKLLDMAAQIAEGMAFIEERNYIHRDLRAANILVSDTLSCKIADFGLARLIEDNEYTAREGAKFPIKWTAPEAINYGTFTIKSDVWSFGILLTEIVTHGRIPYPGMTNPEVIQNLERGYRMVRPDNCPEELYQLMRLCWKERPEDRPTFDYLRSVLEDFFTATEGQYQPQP

[6] = target: PDK1 (Homo sapiens, UniProt O15530)
[7] = target: Cdk1 (Homo sapiens, UniProt P06493)
Cdk1, sequence (P06493 whole entry, species assumed): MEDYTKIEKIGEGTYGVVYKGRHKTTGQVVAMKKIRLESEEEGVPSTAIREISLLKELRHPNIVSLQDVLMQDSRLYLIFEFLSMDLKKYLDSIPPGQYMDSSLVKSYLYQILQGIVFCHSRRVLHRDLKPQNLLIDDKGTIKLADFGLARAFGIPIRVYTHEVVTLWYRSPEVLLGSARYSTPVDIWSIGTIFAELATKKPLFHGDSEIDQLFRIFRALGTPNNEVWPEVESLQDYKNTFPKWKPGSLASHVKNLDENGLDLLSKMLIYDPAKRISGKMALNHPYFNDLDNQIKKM
Cdk1, sequence (P14635 whole entry partner, species assumed): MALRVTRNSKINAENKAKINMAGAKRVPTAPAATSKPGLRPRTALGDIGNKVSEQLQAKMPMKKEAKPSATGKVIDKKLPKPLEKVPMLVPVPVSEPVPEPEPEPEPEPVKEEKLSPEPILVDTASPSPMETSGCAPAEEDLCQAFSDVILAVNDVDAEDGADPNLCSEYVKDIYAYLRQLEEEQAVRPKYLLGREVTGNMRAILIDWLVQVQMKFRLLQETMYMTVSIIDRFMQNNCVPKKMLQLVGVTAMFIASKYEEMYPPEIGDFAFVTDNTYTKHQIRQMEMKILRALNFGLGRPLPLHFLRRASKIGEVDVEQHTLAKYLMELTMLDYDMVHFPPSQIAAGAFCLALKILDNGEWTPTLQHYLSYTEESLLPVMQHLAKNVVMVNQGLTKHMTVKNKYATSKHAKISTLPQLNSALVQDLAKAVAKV

[8] = target: PKCδ (Homo sapiens, UniProt Q05655)
[9] = target: PKCα (Homo sapiens, UniProt P17252)
[10] = target: Chk2 (Homo sapiens, UniProt O96017)
[11] = target: PAK4 (Homo sapiens, UniProt O96013)
PAK4, sequence (O96013 whole entry, species assumed): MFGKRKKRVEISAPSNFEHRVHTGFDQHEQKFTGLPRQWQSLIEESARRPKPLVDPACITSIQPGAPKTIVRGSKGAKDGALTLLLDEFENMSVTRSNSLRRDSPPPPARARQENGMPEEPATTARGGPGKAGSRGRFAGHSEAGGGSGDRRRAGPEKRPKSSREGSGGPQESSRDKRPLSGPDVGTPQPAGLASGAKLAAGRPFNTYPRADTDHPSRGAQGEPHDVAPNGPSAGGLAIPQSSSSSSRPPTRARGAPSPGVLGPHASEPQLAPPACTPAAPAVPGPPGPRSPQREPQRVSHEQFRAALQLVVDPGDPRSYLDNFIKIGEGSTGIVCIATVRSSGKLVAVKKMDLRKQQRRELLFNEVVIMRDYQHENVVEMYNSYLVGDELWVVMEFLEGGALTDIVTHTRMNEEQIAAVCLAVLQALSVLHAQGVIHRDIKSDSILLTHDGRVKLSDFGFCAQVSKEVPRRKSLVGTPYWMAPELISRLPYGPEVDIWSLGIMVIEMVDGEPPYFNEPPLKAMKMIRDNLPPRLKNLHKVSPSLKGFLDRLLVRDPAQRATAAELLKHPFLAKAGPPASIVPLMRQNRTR

[12] = target: PKCγ (Homo sapiens, UniProt P05129)
[13] = target: MAPKAP kinase-2 (Homo sapiens, UniProt P49137)
MAPKAP kinase-2, sequence (P49137 whole entry, species assumed): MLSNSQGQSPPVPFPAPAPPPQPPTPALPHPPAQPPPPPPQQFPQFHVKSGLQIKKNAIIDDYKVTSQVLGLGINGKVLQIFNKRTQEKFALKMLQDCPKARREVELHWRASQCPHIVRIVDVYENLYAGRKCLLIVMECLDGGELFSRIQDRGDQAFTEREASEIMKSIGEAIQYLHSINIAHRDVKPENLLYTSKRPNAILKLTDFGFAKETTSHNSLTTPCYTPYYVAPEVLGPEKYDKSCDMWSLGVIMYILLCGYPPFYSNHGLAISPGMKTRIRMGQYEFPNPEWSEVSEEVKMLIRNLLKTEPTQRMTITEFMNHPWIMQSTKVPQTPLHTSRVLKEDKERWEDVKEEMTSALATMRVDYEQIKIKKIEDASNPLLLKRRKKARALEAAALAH

[14] = test system: myosin II heavy chain
[15] = target: MEK1 (Homo sapiens, UniProt Q02750)
MEK1, sequence (Q02750 whole entry, species assumed): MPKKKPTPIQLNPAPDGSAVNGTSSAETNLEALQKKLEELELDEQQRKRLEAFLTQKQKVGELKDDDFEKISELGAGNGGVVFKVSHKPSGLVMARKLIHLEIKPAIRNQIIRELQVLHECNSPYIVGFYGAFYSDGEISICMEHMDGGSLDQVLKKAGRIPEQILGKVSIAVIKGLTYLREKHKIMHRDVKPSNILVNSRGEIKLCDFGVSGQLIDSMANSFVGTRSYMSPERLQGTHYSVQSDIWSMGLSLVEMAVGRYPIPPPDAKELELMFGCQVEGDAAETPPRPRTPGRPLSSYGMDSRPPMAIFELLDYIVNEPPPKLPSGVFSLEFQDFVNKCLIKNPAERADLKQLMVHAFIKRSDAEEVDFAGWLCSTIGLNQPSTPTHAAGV

Cdk5/p25, sequence (Q00535 whole entry, species assumed): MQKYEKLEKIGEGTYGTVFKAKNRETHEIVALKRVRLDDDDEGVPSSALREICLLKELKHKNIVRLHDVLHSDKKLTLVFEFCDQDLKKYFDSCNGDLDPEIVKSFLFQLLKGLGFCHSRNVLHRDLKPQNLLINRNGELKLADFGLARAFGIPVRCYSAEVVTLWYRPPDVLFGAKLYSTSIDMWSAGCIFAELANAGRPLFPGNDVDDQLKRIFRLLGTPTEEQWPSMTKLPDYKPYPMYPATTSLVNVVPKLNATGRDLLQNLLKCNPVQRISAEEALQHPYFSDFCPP
Cdk5/p25, sequence (Q15078 99-307 partner limits assumed, species assumed): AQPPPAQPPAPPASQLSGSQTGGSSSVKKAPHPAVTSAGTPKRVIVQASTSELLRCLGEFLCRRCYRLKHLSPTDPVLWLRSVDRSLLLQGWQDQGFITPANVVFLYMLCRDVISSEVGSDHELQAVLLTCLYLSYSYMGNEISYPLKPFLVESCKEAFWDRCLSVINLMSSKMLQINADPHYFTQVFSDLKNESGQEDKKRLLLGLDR

SMILES	Potential Targets: Cdk5/p25 [1] [nM]	Potential Targets: PKCβ [2] [nM]	Potential Targets: Cdc25C-associated protein kinase 1 [3] [nM]	Potential Targets: Chk1 [4] [nM]	Potential Targets: Lck [5] [nM]	Potential Targets: PDK1 [6] [nM]	Potential Targets: Cdk1 [7] [nM]	Potential Targets: PKCδ [8] [nM]	Potential Targets: PKCα [9] [nM]	Potential Targets: Chk2 [10]	Potential Targets: PAK4 [11] [nM]	Potential Targets: PKCγ [12] [nM]	Potential Targets: MAPKAP kinase-2 [13] [nM]	Potential Targets: myosin II heavy chain [14]	Potential Targets: MEK1 [15]
CN[C@@H]1C[C@H]2O[C@@](C)([C@@H]1OC)n1c3ccccc3c3c4c(c5c6ccccc6n2c5c31)C(=O)N[C@@H]4O [BIM-0207189, UCN-01]	150	34	27	7	50	33	50	590	9	1.04 μM for Chk1, Cdc25C-	50	30	95	–	–
c1nc2nc(Nc3ccc(N4CCOCC4)cc3)nc(NC3CCCCC3)c2[nH]1 [BIM-0207192, Reversine]	–	–	–	–	–	–	–	–	–	–	–	–	–	chain (10 nM), Aurora kinases	MEK1 (8 nM), myosin II heavy
